In patent US11701359B2, “Exon 18 and/or exon 21 mutant EGFR selective inhibitor” (priority 2017, dated 2023):
Read-outs that look alike come from different tables or passages of the source.

What was measured:
human EGFR G719A = target: T1, human EGFR G719A (Homo sapiens, UniProt P00533, G719A); assay: Intracellular EGFR phosphorylation in mutant EGFR forced expression system using HEK293 cells; assay type: cell-based; settings: HEK293 cells expressing human EGFR G719A, 6 hours; read-out: IC50, phosphorylated EGFR inhibition, G719A
T1 construct: expressed in transfected cells; host or cells: Jump-In Grip HEK293 cells (Thermo Fisher Scientific), pJTI R4 DEST CMV pA vector

human EGFR G719S = target: T2, human EGFR G719S (Homo sapiens, UniProt P00533, G719S); assay: as above; assay type: cell-based; settings: HEK293 cells expressing human EGFR G719S, 6 hours; read-out: IC50, phosphorylated EGFR inhibition, G719S
T2 construct: expressed in transfected cells; host or cells: Jump-In Grip HEK293 cells (Thermo Fisher Scientific), pJTI R4 DEST CMV pA vector

human EGFR G719C = target: T3, human EGFR G719C (Homo sapiens, UniProt P00533, G719C); assay: as above; assay type: cell-based; settings: HEK293 cells expressing human EGFR G719C, 6 hours; read-out: IC50, phosphorylated EGFR inhibition, G719C
T3 construct: expressed in transfected cells; host or cells: Jump-In Grip HEK293 cells (Thermo Fisher Scientific), pJTI R4 DEST CMV pA vector

human EGFR E709K = target: T4, human EGFR E709K (Homo sapiens, UniProt P00533, E709K); assay: as above; assay type: cell-based; settings: HEK293 cells expressing human EGFR E709K, 6 hours; read-out: IC50, phosphorylated EGFR inhibition, E709K
T4 construct: expressed in transfected cells; host or cells: Jump-In Grip HEK293 cells (Thermo Fisher Scientific), pJTI R4 DEST CMV pA vector

human EGFR E709A = target: T5, human EGFR E709A (Homo sapiens, UniProt P00533, E709A); assay: as above; assay type: cell-based; settings: HEK293 cells expressing human EGFR E709A, 6 hours; read-out: IC50, phosphorylated EGFR inhibition, E709A
T5 construct: expressed in transfected cells; host or cells: Jump-In Grip HEK293 cells (Thermo Fisher Scientific), pJTI R4 DEST CMV pA vector

human EGFR L861Q = target: T6, human EGFR L861Q (Homo sapiens, UniProt P00533, L861Q); assay: as above; assay type: cell-based; settings: HEK293 cells expressing human EGFR L861Q, 6 hours; read-out: IC50, phosphorylated EGFR inhibition, L861Q
T6 construct: expressed in transfected cells; host or cells: Jump-In Grip HEK293 cells (Thermo Fisher Scientific), pJTI R4 DEST CMV pA vector

human EGFR G719A+T790M = target: T7, human EGFR G719A+T790M (Homo sapiens, UniProt P00533, G719A/T790M); assay: as above; assay type: cell-based; settings: HEK293 cells expressing human EGFR G719A+T790M, 6 hours; read-out: IC50, phosphorylated EGFR inhibition, G719A + T790M
T7 construct: expressed in transfected cells; host or cells: Jump-In Grip HEK293 cells (Thermo Fisher Scientific), pJTI R4 DEST CMV pA vector

human EGFR L861Q+T790M = target: T8, human EGFR L861Q+T790M (Homo sapiens, UniProt P00533, L861Q/T790M); assay: as above; assay type: cell-based; settings: HEK293 cells expressing human EGFR L861Q+T790M, 6 hours; read-out: IC50, phosphorylated EGFR inhibition, L861Q + T790M
T8 construct: expressed in transfected cells; host or cells: Jump-In Grip HEK293 cells (Thermo Fisher Scientific), pJTI R4 DEST CMV pA vector

Ba/F3-EGFR_WT cells = assay: Cell growth inhibitory effect, wild-type EGFR-expressing Ba/F3 cell line (CellTiter-Glo); assay type: cell-based; settings: Mus musculus, BaF3, 72 h, read-out: IC50 (nM) WT
Procedure: (§1) Evaluation of Cell Growth Inhibitory Effect Against Wild-Type EGFR- and Mutant EGFR-Expressing Cell Line (In Vitro)
(§2) The inhibitory activity of compounds against wild-type EGFR and mutant EGFR was evaluated using Ba/F3 cells, which are mouse B-lymphocyte precursor cell line to which a human EGFR gene was introduced.
(§3) The solutions were then added to each well of the culture plate of the cells, and the cells were incubated in a 5% CO2 gas-containing incubator at 37° C. for 3 days. The cell count after incubation was measured by a CellTiter-Glo (trademark) Luminescent Cell Viability Assay (Promega Corporation) in accordance with the manufacturer's recommended protocol.

Ba/F3-EGFR G719A cells = assay: Cell growth inhibitory effect, G719A mutant EGFR-expressing Ba/F3 cell line (CellTiter-Glo); assay type: cell-based, mouse; settings: for IC50: Mus musculus, 72 h, read-out: IC50 (nM) G719A
Procedure: as §1, §2, §3

Ba/F3-EGFR L861Q cells = assay: Cell growth inhibitory effect, L861Q mutant EGFR-expressing Ba/F3 cell line (CellTiter-Glo); assay type: cell-based, mouse; settings: for IC50: Mus musculus, 72 h, read-out: IC50 (nM) L861Q
Procedure: as §1, §2, §3

[1] = tested on: Ba/F3-EGFR G719A+T790M cells; assay: Cell growth inhibitory effect, G719A+T790M mutant EGFR-expressing Ba/F3 cell line (CellTiter-Glo); assay type: cell-based, mouse; settings: for IC50: Mus musculus, 72 h, read-out: IC50 (nM) G719A + T790M
Procedure: (§4) These solutions were then added to each well of the culture plate of the cells, and incubated in a 5% CO2 gas-containing incubator at 37° C. for 3 days. The cell count after incubation was measured using a CellTiter-Glo (trademark) Luminescent Cell Viability Assay (Promega Corporation), in accordance with the manufacturer's recommended protocol.

[2] = tested on: Ba/F3-EGFR L861Q+T790M cells; assay: Cell growth inhibitory effect, L861Q+T790M mutant EGFR-expressing Ba/F3 cell line (CellTiter-Glo); assay type: cell-based, mouse; settings: for IC50: Mus musculus, 72 h, read-out: IC50 (nM) L861Q + T790M
Procedure: as §4

in vivo = settings: mouse, in vivo; nude mice, oral once daily, 14 days, G719A+T790M model; read-out: Maximum tolerated dose (weight loss during dosing period less than 20%)
Procedure: (§5) The maximum tolerated dose was determined in accordance with the “Guidelines Involving Experimental Neoplasia Proposals in Mice and Rats” of the National Cancer Institute (NCI), from a humanitarian perspective.
(§6) To compare the changes in growth of tumor over time due to administration of the individual test compounds, the tumor volume (which may be hereinafter referred to as “TV”) was used as an index. […] For a toxicity index, the body weight was measured over time, and the body weight change (which may be hereinafter referred to as “BWC (%)”) from the day on which the mice were divided into groups was calculated in accordance with the following formula. […] BWC (%)=(the body weight measured on body weight measurement day)/(the body weight on the day mice were divided into groups)
(§7) A Dunnett's test was performed using the average TV on the final evaluation day as an index. […] T/C (%)=(the average TV of the group administered with a test compound)/(the average TV of the control group)×100

[3] = tested on: NIH3T3-EGFR G719A+T790M cells; assay: in vivo; settings: nude mice; for T/C (%): final evaluation day
Procedure: as §5, §6, §7

[4] = Antitumor effect on mouse model subcutaneously transplanted with G719A mutant EGFR-expressing cell line; settings: nude, mouse, in vivo, po
Procedure: as §5
(§8) To compare the changes in growth of tumor over time due to administration of the individual test compounds, the tumor volume (which may be hereinafter referred to as “TV”) was used as an index. For a toxicity index, the body weight was measured over time, and the body weight change (which may be hereinafter referred to as “BWC (%)”) from the day on which the mice were divided into groups was calculated in accordance with the following formula. BWC (%)=(the body weight measured on body weight measurement day)/(the body weight on the day mice were divided into groups)
(§9) T/C (%)=(the average TV of the group administered with a test compound)/(the average TV of the control group)×100

NIH3T3-EGFR G719A cells = assay: as above; settings: nude mice
Procedure: as §5, §8, §9

T5 sequence (P00533 25-1210 E709A): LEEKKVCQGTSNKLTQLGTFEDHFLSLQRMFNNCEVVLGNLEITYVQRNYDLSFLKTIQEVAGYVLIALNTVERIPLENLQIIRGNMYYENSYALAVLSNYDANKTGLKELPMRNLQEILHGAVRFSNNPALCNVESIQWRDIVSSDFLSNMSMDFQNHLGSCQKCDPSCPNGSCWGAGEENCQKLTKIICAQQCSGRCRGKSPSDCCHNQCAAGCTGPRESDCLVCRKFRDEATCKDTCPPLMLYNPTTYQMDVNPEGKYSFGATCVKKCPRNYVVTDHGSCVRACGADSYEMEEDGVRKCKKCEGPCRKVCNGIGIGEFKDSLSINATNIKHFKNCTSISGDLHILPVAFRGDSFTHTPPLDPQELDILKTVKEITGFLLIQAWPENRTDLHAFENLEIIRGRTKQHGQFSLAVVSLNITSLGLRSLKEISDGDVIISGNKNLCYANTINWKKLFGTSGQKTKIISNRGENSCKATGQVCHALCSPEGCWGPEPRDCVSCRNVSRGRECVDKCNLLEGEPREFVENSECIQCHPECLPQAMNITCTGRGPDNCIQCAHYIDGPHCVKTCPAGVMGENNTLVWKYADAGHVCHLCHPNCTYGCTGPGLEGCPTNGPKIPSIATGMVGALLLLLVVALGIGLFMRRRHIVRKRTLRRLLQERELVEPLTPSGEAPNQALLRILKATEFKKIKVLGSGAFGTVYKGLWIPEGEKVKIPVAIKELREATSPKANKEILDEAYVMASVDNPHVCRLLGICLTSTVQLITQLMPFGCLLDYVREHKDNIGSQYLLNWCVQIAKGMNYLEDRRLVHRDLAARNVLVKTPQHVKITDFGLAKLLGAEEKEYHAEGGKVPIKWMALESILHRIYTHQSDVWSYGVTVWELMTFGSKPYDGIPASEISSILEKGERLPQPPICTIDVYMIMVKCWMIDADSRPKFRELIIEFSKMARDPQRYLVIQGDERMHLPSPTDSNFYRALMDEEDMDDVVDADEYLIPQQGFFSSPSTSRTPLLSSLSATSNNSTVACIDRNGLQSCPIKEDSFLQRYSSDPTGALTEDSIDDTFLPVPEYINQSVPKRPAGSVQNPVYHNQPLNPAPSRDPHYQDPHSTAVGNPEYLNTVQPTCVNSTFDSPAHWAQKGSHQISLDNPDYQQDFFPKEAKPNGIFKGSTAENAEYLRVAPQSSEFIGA
T2 sequence (P00533 25-1210 G719S): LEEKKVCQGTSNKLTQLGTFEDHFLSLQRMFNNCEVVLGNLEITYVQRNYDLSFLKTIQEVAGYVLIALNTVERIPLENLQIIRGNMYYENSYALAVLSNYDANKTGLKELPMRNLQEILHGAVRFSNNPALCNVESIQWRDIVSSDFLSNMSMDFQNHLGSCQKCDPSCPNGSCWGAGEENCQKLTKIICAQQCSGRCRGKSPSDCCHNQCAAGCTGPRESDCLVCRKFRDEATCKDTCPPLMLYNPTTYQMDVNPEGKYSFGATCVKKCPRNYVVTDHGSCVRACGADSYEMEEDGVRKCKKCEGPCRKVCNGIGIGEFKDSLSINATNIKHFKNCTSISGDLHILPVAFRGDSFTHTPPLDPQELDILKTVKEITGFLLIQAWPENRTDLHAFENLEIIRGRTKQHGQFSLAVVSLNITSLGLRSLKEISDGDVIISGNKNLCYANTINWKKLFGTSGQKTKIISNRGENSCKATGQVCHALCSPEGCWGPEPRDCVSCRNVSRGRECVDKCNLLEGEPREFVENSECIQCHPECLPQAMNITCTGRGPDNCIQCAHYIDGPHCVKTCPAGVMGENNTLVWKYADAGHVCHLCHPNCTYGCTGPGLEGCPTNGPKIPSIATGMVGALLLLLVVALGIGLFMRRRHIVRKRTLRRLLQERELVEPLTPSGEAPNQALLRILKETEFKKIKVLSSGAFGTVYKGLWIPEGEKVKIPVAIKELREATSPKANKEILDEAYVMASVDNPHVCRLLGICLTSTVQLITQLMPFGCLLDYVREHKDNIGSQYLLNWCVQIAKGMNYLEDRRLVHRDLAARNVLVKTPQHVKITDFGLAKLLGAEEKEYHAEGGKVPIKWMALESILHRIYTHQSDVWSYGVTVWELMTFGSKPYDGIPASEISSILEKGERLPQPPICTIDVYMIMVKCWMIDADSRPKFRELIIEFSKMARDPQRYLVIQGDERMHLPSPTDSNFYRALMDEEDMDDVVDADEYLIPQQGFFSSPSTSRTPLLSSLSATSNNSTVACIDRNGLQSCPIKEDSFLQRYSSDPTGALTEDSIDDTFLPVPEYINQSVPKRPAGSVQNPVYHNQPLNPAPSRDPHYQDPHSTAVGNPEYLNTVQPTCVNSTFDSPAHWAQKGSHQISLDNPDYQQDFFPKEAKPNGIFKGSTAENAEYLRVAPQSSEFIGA
T4 sequence (P00533 25-1210 E709K): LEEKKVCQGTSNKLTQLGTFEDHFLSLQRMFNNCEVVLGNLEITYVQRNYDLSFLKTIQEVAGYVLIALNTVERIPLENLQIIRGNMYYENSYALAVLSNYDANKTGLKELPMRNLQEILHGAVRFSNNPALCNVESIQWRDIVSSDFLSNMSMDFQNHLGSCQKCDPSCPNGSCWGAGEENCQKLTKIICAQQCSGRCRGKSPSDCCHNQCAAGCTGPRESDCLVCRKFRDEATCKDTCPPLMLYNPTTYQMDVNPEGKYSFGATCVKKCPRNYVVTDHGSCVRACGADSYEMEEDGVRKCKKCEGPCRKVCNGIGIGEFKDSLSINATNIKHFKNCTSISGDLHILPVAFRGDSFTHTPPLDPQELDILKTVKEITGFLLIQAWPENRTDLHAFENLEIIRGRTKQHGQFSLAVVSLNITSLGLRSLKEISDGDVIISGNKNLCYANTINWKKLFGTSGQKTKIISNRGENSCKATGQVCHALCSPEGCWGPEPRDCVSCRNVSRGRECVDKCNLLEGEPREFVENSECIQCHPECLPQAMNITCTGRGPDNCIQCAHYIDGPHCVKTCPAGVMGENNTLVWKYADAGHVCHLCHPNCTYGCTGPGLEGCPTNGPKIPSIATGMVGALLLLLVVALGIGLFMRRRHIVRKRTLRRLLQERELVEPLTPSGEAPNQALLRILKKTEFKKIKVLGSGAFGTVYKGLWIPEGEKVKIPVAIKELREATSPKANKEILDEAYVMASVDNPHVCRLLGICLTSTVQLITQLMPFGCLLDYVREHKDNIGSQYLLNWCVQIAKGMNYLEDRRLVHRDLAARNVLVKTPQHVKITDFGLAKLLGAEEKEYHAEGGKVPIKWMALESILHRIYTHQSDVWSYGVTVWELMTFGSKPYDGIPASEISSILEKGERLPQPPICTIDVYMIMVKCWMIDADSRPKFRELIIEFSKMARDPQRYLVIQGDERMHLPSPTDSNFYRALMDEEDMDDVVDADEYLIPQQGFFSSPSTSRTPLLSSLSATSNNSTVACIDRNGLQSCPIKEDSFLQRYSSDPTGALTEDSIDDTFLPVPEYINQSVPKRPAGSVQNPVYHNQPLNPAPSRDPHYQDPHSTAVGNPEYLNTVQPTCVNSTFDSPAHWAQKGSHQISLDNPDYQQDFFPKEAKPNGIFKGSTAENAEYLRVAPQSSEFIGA
T3 sequence (P00533 25-1210 G719C): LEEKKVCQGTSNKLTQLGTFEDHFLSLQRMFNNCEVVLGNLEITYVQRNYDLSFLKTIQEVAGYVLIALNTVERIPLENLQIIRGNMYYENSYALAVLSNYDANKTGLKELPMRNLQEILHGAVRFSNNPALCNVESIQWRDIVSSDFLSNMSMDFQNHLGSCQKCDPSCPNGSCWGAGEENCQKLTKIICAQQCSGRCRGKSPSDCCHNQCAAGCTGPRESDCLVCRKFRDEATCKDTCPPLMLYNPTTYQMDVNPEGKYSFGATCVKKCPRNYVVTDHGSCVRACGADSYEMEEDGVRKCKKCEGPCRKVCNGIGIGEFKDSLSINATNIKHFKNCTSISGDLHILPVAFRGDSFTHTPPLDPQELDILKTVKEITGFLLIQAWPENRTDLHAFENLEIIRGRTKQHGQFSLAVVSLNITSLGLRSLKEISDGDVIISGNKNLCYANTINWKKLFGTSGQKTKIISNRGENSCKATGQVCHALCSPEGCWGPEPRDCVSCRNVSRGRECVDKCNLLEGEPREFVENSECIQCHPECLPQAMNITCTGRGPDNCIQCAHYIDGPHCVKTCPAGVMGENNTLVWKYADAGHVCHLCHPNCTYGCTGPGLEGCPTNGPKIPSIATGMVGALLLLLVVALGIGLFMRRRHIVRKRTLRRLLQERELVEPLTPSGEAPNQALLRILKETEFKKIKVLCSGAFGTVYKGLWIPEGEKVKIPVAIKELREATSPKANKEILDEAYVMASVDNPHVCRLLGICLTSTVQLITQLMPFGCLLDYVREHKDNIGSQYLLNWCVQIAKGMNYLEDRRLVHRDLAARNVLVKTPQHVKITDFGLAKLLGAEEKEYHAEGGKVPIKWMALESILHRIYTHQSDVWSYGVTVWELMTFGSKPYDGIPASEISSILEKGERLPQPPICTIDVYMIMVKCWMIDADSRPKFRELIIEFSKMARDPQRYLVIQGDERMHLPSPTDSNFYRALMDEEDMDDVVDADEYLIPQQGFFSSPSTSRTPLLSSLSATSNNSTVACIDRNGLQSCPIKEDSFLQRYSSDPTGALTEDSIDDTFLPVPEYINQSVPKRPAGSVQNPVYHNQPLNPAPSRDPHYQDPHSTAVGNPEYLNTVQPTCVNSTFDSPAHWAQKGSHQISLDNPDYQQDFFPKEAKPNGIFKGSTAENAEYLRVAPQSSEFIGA

SMILES: C=CC(=O)N[C@H]1C=C(C)c2c(-c3cnc4ccccc4c3)c3c(N)ncnc3n2C1 [Compound A, (S)-N-(4-amino-6-methyl-5-(quinolin-3-yl)-8,9-dihydropyrimido[5,4-b]indolizin-8-yl)acrylamide]
- IC50 (human EGFR G719A): 20500 nM
- IC50 (human EGFR G719S): 22700 nM
- IC50 (human EGFR G719C): 9300 nM
- IC50 (human EGFR E709K): 86000 nM
- IC50 (human EGFR E709A): 103000 nM
- IC50 (human EGFR L861Q): 40500 nM
- IC50 (human EGFR G719A+T790M): 31300 nM
- IC50 (human EGFR L861Q+T790M): 81800 nM
- IC50 (Ba/F3-EGFR_WT cells; Ba/F3 cells with human wild-type EGFR, 50 ng/mL EGF, 3 days): 597 nM
- IC50 Ratio WT/G719A (Ba/F3-EGFR G719A cells; IC50 (WT)/IC50 (G719A), Ba/F3 cells): 66.4
- IC50 (Ba/F3-EGFR G719A cells; Ba/F3 cells with human EGFR G719A, no EGF, 3 days): 9 nM
- IC50 Ratio WT/L861Q (Ba/F3-EGFR L861Q cells; IC50 (WT)/IC50 (L861Q), Ba/F3 cells): 31.4
- IC50 (Ba/F3-EGFR L861Q cells; Ba/F3 cells with human EGFR L861Q, no EGF, 3 days): 19 nM
- IC50 Ratio WT/G719A + T790M ([1]; IC50 (WT)/IC50 (G719A+T790M), Ba/F3 cells): 37.9
- IC50 ([1]; Ba/F3 cells with human EGFR G719A+T790M, no EGF, 3 days): 15.8 nM
- IC50 Ratio WT/L861Q + T790M ([2]; IC50 (WT)/IC50 (L861Q+T790M), Ba/F3 cells): 15.9
- IC50 ([2]; Ba/F3 cells with human EGFR L861Q+T790M, no EGF, 3 days): 37.5 nM
- MTD at 14 days (in vivo): 200 mg/kg/day
- T/C (%) ([3]; 50 mg/kg, oral once daily): 47.7%
- T/C (%) ([3]; 100 mg/kg, oral once daily): 36.4%
- T/C (%) ([3]; 200 mg/kg, oral once daily): 28.0%
- Symptoms (weight loss, abnormal feces, abnormal skin) ([3]; NIH3T3-EGFR G719A+T790M model, oral once daily, FIG. 4): without symptoms such as serious weight loss
- Antitumor effect (tumor volume) ([3]; NIH3T3-EGFR G719A+T790M subcutaneous, oral once daily, 50, 100, 200 mg/kg/day, FIG. 3): significant antitumor effect
- MTD at 14 days [4]: 200 mg/kg/day
- Symptoms (weight loss, abnormal feces, abnormal skin) (NIH3T3-EGFR G719A cells; NIH3T3-EGFR G719A model, oral once daily 14 days, FIG. 2): did not show symptoms
- Antitumor effect (tumor volume) (NIH3T3-EGFR G719A cells; NIH3T3-EGFR G719A subcutaneous, oral once daily 14 days, 50, 100, 200 mg/kg/day, FIG. 1): remarkable antitumor effect

SMILES: C=CC(=O)Nc1cc(Nc2nccc(-c3cn(C)c4ccccc34)n2)c(OC)cc1N(C)CCN(C)C [Osimertinib, osimertinib, reference compound]
- IC50 (Ba/F3-EGFR_WT cells): 379 nM
- IC50 (Ba/F3-EGFR G719A cells; Ba/F3 EGFR): 209 nM
- IC50 (Ba/F3-EGFR L861Q cells; Ba/F3 EGFR): 47 nM
- IC50 ([1]; Ba/F3 EGFR): 89.4 nM
- IC50 ([2]; Ba/F3 EGFR): 36.4 nM
